Laboratory results: patent US8202870B2, “Substituted oxindole derivatives, medicaments containing the latter and use thereof” (Abbott GmbH & Co. KG, priority 2005, dated 2012)
Where two headings read alike, the source gives them in different places.

Target: T1, human V1b receptors (Homo sapiens, UniProt P47901)
T1 construct: expressed in transfected cells; preparation V1b-3H2
T1 sequence (P47901 1-424): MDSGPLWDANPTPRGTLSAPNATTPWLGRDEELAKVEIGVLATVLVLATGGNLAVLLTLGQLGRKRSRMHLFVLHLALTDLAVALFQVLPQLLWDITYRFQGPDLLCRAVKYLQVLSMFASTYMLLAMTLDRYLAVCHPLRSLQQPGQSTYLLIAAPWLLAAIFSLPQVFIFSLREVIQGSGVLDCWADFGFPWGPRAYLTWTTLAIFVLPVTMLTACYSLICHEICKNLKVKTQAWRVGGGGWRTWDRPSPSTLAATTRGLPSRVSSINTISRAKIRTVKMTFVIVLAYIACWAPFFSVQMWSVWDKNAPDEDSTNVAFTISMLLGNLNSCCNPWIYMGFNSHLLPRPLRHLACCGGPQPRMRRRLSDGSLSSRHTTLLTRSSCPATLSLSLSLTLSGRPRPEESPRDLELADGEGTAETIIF
Assay: Vasopressin V1b receptor binding assay
Description: Vasopressin V1b Receptor Binding Assay:
This DMSO predilution series was diluted 1:10 with assay buffer. The substance concentration was further diluted 1:10 in the assay mixture.
The nonspecific binding was determined with 10^−6 M AVP. Determinations in triplicate were carried out.
The affinities for the human vasopressin V1b receptor were measured, and affinity constants determined, in the above assay for the inventive examples.
The affinities of the compounds (I) of the invention for the human vasopressin V1b receptor were measured in accordance with the above assays, and the affinity constants. (Ki) were determined. Table 1 below details the V1b receptor affinity of selected compounds (++ means <50 nM and + means 50-500 nM).

[1] = membranes from CHO-K1 cells with human V1b receptors, 3H-AVP displacement, read-out: V1b Ki
[2] = read-out: Ki values, affinity for the vasopressin V1b receptor

| Structure (SMILES) | Ki [1] [µM] | Ki [2] [µM] |
| --- | --- | --- |
| CCOc1ccccc1C1(OC(=O)N2CCN(c3nccs3)CC2)C(=O)N(S(=O)(=O)c2ccsc2)c2ccc(C#N)cc21 (stereo not drawn) [Example 8, 5-Cyano-3-(2-ethoxyphenyl)-2-oxo-1-(thien-3-ylsulfonyl)-2,3-dihydro-1H-indol-3-yl 4-(thiazol-2-yl)piperazine-1-carboxylate] | 0.05 to 0.5 |  |
| CCOc1ccccc1C1(NC(=O)N2CCN(c3ccncc3)CC2)C(=O)N(S(=O)(=O)c2ccsc2)c2ccc(C#N)cc21 (stereo not drawn) [Example 3, 4-(Pyridin-4-yl)piperazin-1-[5-cyano-3-(2-ethoxyphenyl)-2-oxo-1-(thien-3-yl-sulfonyl)-2,3-dihydro-1H-indol-3-yl]carboxamide] | < 0.05 | < 0.1 |
| CCOc1ccccc1C1(NC(=O)N2CCN(c3ccncc3)CC2)C(=O)N(S(=O)(=O)c2cccc3cccnc23)c2ccc(C#N)cc21 (stereo not drawn) [Example 2, 4-(Pyridin-4-yl)piperazin-1-[5-cyano-3-(2-ethoxyphenyl)-2-oxo-1-(quinoline-8-sulfonyl)-2,3-dihydro-1H-indol-3-yl]carboxamide] | < 0.05 | < 0.1 |
| CCOc1ccccc1C1(OC(=O)N2CCN(c3ccc(C#N)cn3)CC2)C(=O)N(S(=O)(=O)c2cccc3cccnc23)c2ccc(C#N)cc21 (stereo not drawn) [Example 11, 5-Cyano-3-(2-ethoxyphenyl)-2-oxo-1-(quinoline-8-sulfonyl)-2,3-dihydro-1H-indol-3-yl 4-(5-cyanopyridin-2-yl)piperazine-1-carboxylate] | < 0.05 | < 0.1 |
| CCOc1ccccc1C1(NC(=O)N2CCN(c3ccc(C#N)cn3)CC2)C(=O)N(S(=O)(=O)c2ccsc2)c2ccc(C#N)cc21 (stereo not drawn) [Example 10, 4-(5-Cyanopyridin-2-yl)piperazine-1-[5-cyano-3-(2-ethoxyphenyl)-2-oxo-1-(thien-3-ylsulfonyl)-2,3-dihydro-1H-indol-3-yl]carboxamide] | 0.05 to 0.5 | < 0.1 |
| CCOc1ccccc1C1(OC(=O)N2CCN(c3cnccn3)CC2)C(=O)N(S(=O)(=O)c2cccc3cccnc23)c2ccc(C#N)cc21 (stereo not drawn) [Example 7, 5-Cyano-3-(2-ethoxyphenyl)-2-oxo-1-(quinoline-8-sulfonyl)-2,3-dihydro-1H-indol-3-yl 4-(pyrazin-2-yl)piperazine-1-carboxylate] | 0.05 to 0.5 | < 0.1 |

Continued, values first:

| Ki [1] [µM] | Ki [2] [µM] | Structure (SMILES) |
| --- | --- | --- |
| < 0.05 | < 0.1 | CCOc1ccccc1C1(OC(=O)N2CCN(c3ccncc3)CC2)C(=O)N(S(=O)(=O)c2cccc3cccnc23)c2ccc(C#N)cc21 (stereo not drawn) [Example 12, 5-Cyano-3-(2-ethoxyphenyl)-2-oxo-1-(quinoline-8-sulfonyl)-2,3-dihydro-1H-indol-3-yl 4-(pyridin-4-yl)piperazine-1-carboxylate] |
| < 0.05 | < 0.1 | CCOc1ccccc1C1(OC(=O)N2CCN(c3ncccn3)CC2)C(=O)N(S(=O)(=O)c2cccc3cccnc23)c2ccc(C#N)cc21 (stereo not drawn) [Example 6, 5-Cyano-3-(2-ethoxyphenyl)-2-oxo-1-(quinoline-8-sulfonyl)-2,3-dihydro-1H-indol-3-yl 4-(pyrimidin-2-yl)piperazine-1-carboxylate] |
| < 0.05 | < 0.1 | CCOc1ccccc1C1(OC(=O)N2CCN(c3ccccn3)CC2)C(=O)N(S(=O)(=O)c2cccc3cccnc23)c2ccc(C#N)cc21 (stereo not drawn) [Example 5, 5-Cyano-3-(2-ethoxyphenyl)-2-oxo-1-(quinoline-8-sulfonyl)-2,3-dihydro-1H-indol-3-yl 4-(pyridin-2-yl)piperazine-1-carboxylate] |
| < 0.05 | < 0.1 | CCOc1ccccc1C1(OC(=O)N2CCN(c3nccs3)CC2)C(=O)N(S(=O)(=O)c2cccc3cccnc23)c2ccc(C#N)cc21 (stereo not drawn) [Example 1, 5-Cyano-3-(2-ethoxyphenyl)-2-oxo-1-(quinoline-8-sulfonyl)-2,3-dihydro-1H-indol-3-yl 4-(thiazol-2-yl)piperazine-1-carboxylate] |
| < 0.05 | < 0.1 | CCOc1ccccc1C1(OC(=O)N2CCN(c3ccncc3)CC2)C(=O)N(S(=O)(=O)c2ccsc2)c2ccc(C#N)cc21 (stereo not drawn) [Example 4, 5-Cyano-3-(2-ethoxyphenyl)-2-oxo-1-(thien-3-ylsulfonyl)-2,3-dihydro-1H-indol-3-yl 4-(pyridin-4-yl)piperazine-1-carboxylate] |
